Patent publication US10851093B2, “Tyrosine kinase inhibitors” (Rigel Pharmaceuticals, Inc., priority 2018, dated 2020)

Columns and labels:
[1] = molecular target: T1, Axl (Homo sapiens, UniProt P30530); assay: Phospho-AKT HTRF, HUVEC, Axl ABX-L, 8 pt; type: cell-based; details: HUVEC cells, pAkt(Ser473) HTRF, Axl ABX-L stimulation
T1 construct: Seed HUVECs (10K cells/well) in EBM-2 complete media; host or cells: HUVEC
T1 sequence (P30530 26-894): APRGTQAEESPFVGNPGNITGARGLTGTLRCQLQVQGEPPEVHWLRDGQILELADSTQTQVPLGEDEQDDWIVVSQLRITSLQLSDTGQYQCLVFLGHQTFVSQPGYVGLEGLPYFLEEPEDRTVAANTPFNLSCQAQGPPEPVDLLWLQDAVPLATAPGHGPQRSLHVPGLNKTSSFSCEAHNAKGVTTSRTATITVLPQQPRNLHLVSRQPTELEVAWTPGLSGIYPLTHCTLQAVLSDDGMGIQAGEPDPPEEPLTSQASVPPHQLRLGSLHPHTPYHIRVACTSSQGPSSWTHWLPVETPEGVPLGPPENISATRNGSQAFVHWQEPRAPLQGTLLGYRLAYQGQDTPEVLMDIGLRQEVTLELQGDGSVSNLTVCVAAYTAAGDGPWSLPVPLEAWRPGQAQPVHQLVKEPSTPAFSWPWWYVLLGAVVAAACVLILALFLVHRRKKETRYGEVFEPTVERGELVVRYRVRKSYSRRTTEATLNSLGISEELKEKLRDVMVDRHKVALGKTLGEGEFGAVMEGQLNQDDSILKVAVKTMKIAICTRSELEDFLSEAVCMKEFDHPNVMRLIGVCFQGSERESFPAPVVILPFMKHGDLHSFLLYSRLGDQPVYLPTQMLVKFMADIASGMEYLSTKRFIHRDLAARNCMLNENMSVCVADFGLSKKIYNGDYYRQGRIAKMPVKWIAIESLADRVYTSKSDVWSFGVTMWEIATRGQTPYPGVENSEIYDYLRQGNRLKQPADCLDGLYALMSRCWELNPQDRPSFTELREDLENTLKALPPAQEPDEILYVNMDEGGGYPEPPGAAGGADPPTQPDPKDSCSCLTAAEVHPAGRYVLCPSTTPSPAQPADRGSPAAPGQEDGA
Experimental: [The source words this procedure for another target and reports this target under the same test.] (§1) Example 13: PAKT HTRF-HUVEC Assay
(§2) Seed HUVECs (10K cells/well) in EBM-2 complete media (EBM-2 basal medium plus EGM-2 BulletKit supplements) overnight at 37° C., 5% CO2 in Costar 96-well white clear-bottom plates. Remove culture media and starve cells for 3-4 hours in 50 μL/well EBM-2 basal medium. Perform serial dilution of compounds in DMSO from 2.5 mM in 4-fold dilutions, and then dilute 1:125 in EBM-2 basal media. Mix 50 μL/well 2× compounds with 50 μL/well HUVECs in duplicate in Costar 96-well white clear-bottom plates. Incubate plates for 1 hour at 37° C., 5% CO2. Cross-link anti-human MerTK antibody to Biotin-SP-conjugated anti-mouse IgG antibody (1:1) to give final concentrations of 5 μg/mL of anti-human MerTK-XL. Stimulate HUVECs with 25 μL/well 5× anti-human MerTK-XL to give final concentrations of 1 ug/mL for 10 minutes at 37° C., 5% CO2. Completely remove media and lyse HUVECs with 40 uL:WELL per well of Cisbio HTRF 1× lysis buffer. Performed pAkt(Ser473) HTRF assay in ProxiPlate-384 Plus, white 384-shallow well microplate according to the vendor protocol and read plates with a SpectralMax Paradigm plate reader. Enter the HTRF values into Athena (Rigel) for curve fitting, EC50 calculation, and database storage.

[2] = molecular target: T2, MerTK (Homo sapiens, UniProt Q12866); assay: Phospho-AKT HTRF, HUVEC, Mer-XL, 8 pt (pAKT HTRF-HUVEC assay, anti-human MerTK-XL stimulation); type: cell-based; details: HUVEC cells, pAkt(Ser473) HTRF, anti-human MerTK-XL stimulation 1 ug/mL 10 minutes
T2 construct: Seed HUVECs (10K cells/well) in EBM-2 complete media; host or cells: HUVEC
T2 sequence (Q12866 21-999): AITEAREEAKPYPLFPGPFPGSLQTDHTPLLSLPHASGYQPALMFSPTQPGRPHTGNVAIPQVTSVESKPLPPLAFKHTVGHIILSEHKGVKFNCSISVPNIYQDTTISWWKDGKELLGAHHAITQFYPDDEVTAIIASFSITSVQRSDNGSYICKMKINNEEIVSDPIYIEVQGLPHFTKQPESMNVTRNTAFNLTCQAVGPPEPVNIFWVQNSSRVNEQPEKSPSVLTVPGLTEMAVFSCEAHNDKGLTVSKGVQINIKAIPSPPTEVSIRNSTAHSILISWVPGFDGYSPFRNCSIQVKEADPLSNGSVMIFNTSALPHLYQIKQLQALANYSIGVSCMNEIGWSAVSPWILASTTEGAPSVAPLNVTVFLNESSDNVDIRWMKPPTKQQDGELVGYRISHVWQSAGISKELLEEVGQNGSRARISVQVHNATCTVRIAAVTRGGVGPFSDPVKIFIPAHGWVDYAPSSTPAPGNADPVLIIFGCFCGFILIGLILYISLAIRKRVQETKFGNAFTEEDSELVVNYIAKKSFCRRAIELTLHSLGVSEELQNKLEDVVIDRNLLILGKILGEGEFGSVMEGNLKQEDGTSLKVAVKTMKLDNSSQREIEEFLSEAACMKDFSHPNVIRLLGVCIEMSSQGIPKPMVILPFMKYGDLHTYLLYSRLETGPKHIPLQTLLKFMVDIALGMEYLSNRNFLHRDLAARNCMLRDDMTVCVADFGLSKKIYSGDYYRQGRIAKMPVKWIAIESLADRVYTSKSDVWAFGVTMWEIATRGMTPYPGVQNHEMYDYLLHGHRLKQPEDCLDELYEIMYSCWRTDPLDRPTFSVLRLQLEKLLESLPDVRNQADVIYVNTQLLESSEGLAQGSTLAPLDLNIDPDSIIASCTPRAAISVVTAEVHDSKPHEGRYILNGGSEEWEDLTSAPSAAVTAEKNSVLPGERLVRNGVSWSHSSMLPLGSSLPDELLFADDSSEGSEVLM
Experimental: as §1, §2

COc1cc2c(Oc3ccc(NC(=O)c4cc(N5CC6(CCOCC6)C5)ccn4)nc3)ccnc2cc1OCCCN1CCOCC1 [Compound 18, N-(5-((6-methoxy-7-(3-morpholinopropoxy)quinolin-4-yl)oxy)pyridin-2-yl)-4-(7-oxa-2-azaspiro[3.5]nonan-2-yl)picolinamide]
EC50 [1]: 114 nM
EC50 [2]: 98 nM

COc1cc2c(Oc3ccc(NC(=O)c4cc(N5CC6(COC6)C5)ccn4)nc3)ccnc2cc1OCCCN1CCOCC1 [Compound 19, N-(5-((6-methoxy-7-(3-morpholinopropoxy)quinolin-4-yl)oxy)pyridin-2-yl)-4-(2-oxa-6-azaspiro[3.3]heptan-6-yl)picolinamide]
EC50 [1]: 568 nM
EC50 [2]: 505 nM

COc1cc2c(Oc3ccc(NC(=O)c4cc(N5CC(F)(F)C5)ccn4)nc3)ccnc2cc1OCCCN1CCOCC1 [Compound 20, 4-(3,3-difluoroazetidin-1-yl)-N-(5-((6-methoxy-7-(3-morpholinopropoxy)quinolin-4-yl)oxy)pyridin-2-yl)picolinamide]
EC50 [1]: 163 nM
EC50 [2]: 209 nM

COc1cc2c(Oc3ccc(NC(=O)c4cc(N5CCC(F)(F)CC5)ccn4)nc3)ccnc2cc1OCCCN1CCOCC1 [Compound 21, 4-(4,4-difluoropiperidin-1-yl)-N-(5-((6-methoxy-7-(3-morpholinopropoxy)quinolin-4-yl)oxy)pyridin-2-yl)picolinamide]
EC50 [1]: 62.8 nM
EC50 [2]: 80.6 nM

COc1cc2c(Oc3ccc(NC(=O)c4cc(N5CCC(C)(C)CC5)ccn4)nc3)ccnc2cc1OCCCN1CCOCC1 [Compound 22, 4-(4,4-dimethylpiperidin-1-yl)-N-(5-((6-methoxy-7-(3-morpholinopropoxy)quinolin-4-yl)oxy)pyridin-2-yl)picolinamide]
EC50 [1]: 187 nM
EC50 [2]: 96 nM

COc1cc2c(Oc3ccc(NC(=O)c4cccc(N5CCCCC5)n4)nc3)ccnc2cc1OCCCN1CCOCC1 [Compound 23, N-(5-((6-methoxy-7-(3-morpholinopropoxy)quinolin-4-yl)oxy)pyridin-2-yl)-6-(piperidin-1-yl)picolinamide]
EC50 [1]: 66.8 nM
EC50 [2]: 13 nM

COc1cc2c(Oc3ccc(NC(=O)c4cccc(N5CCC(O)CC5)n4)nc3)ccnc2cc1OCCCN1CCOCC1 [Compound 24, 6-(4-hydroxypiperidin-1-yl)-N-(5-((6-methoxy-7-(3-morpholinopropoxy)quinolin-4-yl)oxy)pyridin-2-yl)picolinamide]
EC50 [1]: 742 nM
EC50 [2]: 654 nM

COc1cc2c(Oc3ccc(NC(=O)c4cccc(N5CCOCC5)n4)nc3)ccnc2cc1OCCCN1CCOCC1 [Compound 25, N-(5-((6-methoxy-7-(3-morpholinopropoxy)quinolin-4-yl)oxy)pyridin-2-yl)-6-morpholinopicolinamide]
EC50 [1]: 112 nM
EC50 [2]: 14.3 nM

COc1cc2c(Oc3ccc(NC(=O)c4cccc(N5CCCC5)n4)nc3)ccnc2cc1OCCCN1CCOCC1 [Compound 26, N-(5-((6-methoxy-7-(3-morpholinopropoxy)quinolin-4-yl)oxy)pyridin-2-yl)-6-(pyrrolidin-1-yl)picolinamide]
EC50 [1]: 32 nM
EC50 [2]: 7 nM

COc1cc2c(Oc3ccc(NC(=O)c4cccc(N5CCC(C)(C)CC5)n4)nc3)ccnc2cc1OCCCN1CCOCC1 [Compound 27, 6-(4,4-dimethylpiperidin-1-yl)-N-(5-((6-methoxy-7-(3-morpholinopropoxy)quinolin-4-yl)oxy)pyridin-2-yl)picolinamide]
EC50 [1]: 84.9 nM
EC50 [2]: 102 nM

COc1cc2c(Oc3ccc(NC(=O)c4cccc(N5CCC(F)(F)CC5)n4)nc3)ccnc2cc1OCCCN1CCOCC1 [Compound 28, 6-(4,4-difluoropiperidin-1-yl)-N-(5-((6-methoxy-7-(3-morpholinopropoxy)quinolin-4-yl)oxy)pyridin-2-yl)picolinamide]
EC50 [1]: 38.7 nM
EC50 [2]: 6.1 nM

CCOC1CCN(c2cccc(C(=O)Nc3ccc(Oc4ccnc5cc(OCCCN6CCOCC6)c(OC)cc45)cn3)n2)CC1 [Compound 29, 6-(4-ethoxypiperidin-1-yl)-N-(5-((6-methoxy-7-(3-morpholinopropoxy)quinolin-4-yl)oxy)pyridin-2-yl)picolinamide]
EC50 [1]: 651 nM
EC50 [2]: 690 nM

COc1cc2c(Oc3ccc(NC(=O)c4cccc(N5CC(F)(F)C5)n4)nc3)ccnc2cc1OCCCN1CCOCC1 [Compound 30, 6-(3,3-difluoroazetidin-1-yl)-N-(5-((6-methoxy-7-(3-morpholinopropoxy)quinolin-4-yl)oxy)pyridin-2-yl)picolinamide]
EC50 [1]: 110 nM
EC50 [2]: 9.4 nM

COc1cc2c(Oc3ccc(NC(=O)c4cc(F)ccn4)nc3)ccnc2cc1OCCCN1CCOCC1 [Compound 31, 4-Fluoro-N-(5-((6-methoxy-7-(3-morpholinopropoxy)quinolin-4-yl)oxy)pyridin-2-yl)picolinamide]
EC50 [1]: 739 nM
EC50 [2]: 311 nM

COc1cc2c(Oc3ccc(NC(=O)c4cc(C)ccn4)nc3)ccnc2cc1OCCCN1CCOCC1 [Compound 32, N-(5-((6-Methoxy-7-(3-morpholinopropoxy)quinolin-4-yl)oxy)pyridin-2-yl)-4-methylpicolinamide]
EC50 [1]: 462 nM
EC50 [2]: 162 nM

COc1ccnc(C(=O)Nc2ccc(Oc3ccnc4cc(OCCCN5CCOCC5)c(OC)cc34)cn2)c1 [Compound 33, 4-Methoxy-N-(5-((6-methoxy-7-(3-morpholinopropoxy)quinolin-4-yl)oxy)pyridin-2-yl)picolinamide]
EC50 [1]: 188 nM
EC50 [2]: 161 nM

COc1cc2c(Oc3ccc(NC(=O)c4cc(C(F)(F)F)ccn4)nc3)ccnc2cc1OCCCN1CCOCC1 [Compound 34, N-(5-((6-Methoxy-7-(3-morpholinopropoxy)quinolin-4-yl)oxy)pyridin-2-yl)-4-(trifluoromethyl)picolinamide]
EC50 [1]: 327 nM
EC50 [2]: 183 nM

COc1cc2c(Oc3ccc(NC(=O)c4nc(-c5ccccc5)c5c(n4)C4CCN5CC4)nc3)ccnc2cc1OCCCN1CCOCC1 [Compound 35, N-(5-((6-methoxy-7-(3-morpholinopropoxy)quinolin-4-yl)oxy)pyridin-2-yl)-4-phenyl-7,8-dihydro-6H-5,8-ethanopyrido[3,2-d]pyrimidine-2-carboxamide]
EC50 [1]: 3 nM
EC50 [2]: 5 nM
